Source: US8338472B2, “Hexahydrocyclopentyl[F]indazole carboxamides and derivatives thereof as selective glucocorticoid receptor modulators” (Merck Sharp & Dohme Corp., priority 2008, dated 2012)
Like-named read-outs stand apart in the source and are kept apart here.

Legend:
human GR = biological target: T1, human GR (Homo sapiens, UniProt P04150); assay: Transrepression Assay (GITAR), TNFα-β-lactamase reporter gene in U937 cells; type: cell-based; settings: for GITAR Greater than by GRAMMER % SEP: GITAR Emax minus GRAMMER Emax; for EC50: inflection point, read-out: Transrepression U937 Cells GITAR IP; for EC50 / Transrepression U937 Cells GITAR Emax: U937 cells
T1 construct: U937 cells contain an endogenous glucocorticoid receptor (GR); endogenous in cells; host or cells: U937 cells stably transfected with the TNF-alpha promoter/beta-lactamase reporter
T1 sequence (P04150 1-777): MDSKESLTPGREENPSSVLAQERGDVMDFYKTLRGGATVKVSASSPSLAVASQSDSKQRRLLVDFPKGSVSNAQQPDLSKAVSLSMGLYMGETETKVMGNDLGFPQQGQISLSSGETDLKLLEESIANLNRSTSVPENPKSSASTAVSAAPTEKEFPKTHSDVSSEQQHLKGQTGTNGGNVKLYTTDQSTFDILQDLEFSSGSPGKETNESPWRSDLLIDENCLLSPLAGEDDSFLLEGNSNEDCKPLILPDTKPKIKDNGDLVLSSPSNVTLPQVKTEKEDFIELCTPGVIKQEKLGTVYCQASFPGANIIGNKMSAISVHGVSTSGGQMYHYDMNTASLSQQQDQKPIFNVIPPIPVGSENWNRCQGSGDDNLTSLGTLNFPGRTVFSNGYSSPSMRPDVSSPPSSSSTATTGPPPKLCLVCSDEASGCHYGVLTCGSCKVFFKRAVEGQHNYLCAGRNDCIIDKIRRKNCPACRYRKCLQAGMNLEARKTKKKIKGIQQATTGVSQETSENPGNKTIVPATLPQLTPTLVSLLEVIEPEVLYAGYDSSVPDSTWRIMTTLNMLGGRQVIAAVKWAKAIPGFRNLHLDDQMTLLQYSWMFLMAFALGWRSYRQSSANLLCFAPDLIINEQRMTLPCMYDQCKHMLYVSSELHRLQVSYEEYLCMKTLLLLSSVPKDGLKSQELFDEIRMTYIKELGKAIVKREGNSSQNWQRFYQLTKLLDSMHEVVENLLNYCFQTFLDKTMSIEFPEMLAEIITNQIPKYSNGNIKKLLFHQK
In short: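 Repression of PMA (5 ng/ml final)/LPS (100 ng/ml final)-induced TNF-α promoter activity, read as β-lactamase cleavage of CCF2-AM, in stably transfected U937 cells expressing native GR. Compound added 30-45 min before stimulation, overnight (~18 hr) 37° C; normalized to 100 nM dexamethasone (100%).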

[1] = biological target: T2, glucocorticoid receptor (GR) (Homo sapiens, UniProt P04150); assay: Ligand binding assay (GR BIND), 3H-dexamethasone displacement in MDA-MB-453 cell lysate; settings: GR BIND Ki, Table 1
T2 sequence (P04150 1-777): T1 sequence (P04150 1-777)

Glucocorticoid Receptor = biological target: T3, Glucocorticoid Receptor (Homo sapiens, UniProt P04150); assay: Trans-Activation Modulation of Glucocorticoid Receptor (GRAMMER), MMTV-LUC reporter gene in A549 cells; type: cell-based; settings: Table 1; for Emax: A549, A549 cells, read-out: Transactivation A549 Cells GRAMMER Emax; for Emax / Transactivation A549 Cells GRAMMER Emax: Emax relative to 300 nM dexamethasone; for EC50: inflection point, read-out: Transactivation A549 Cells GRAMMER IP; for EC50 / Transactivation A549 Cells GRAMMER Emax: A549 cells
T3 construct: These cells express large amount of the GR and are very responsive to GC treatment; endogenous in cells; host or cells: A549 cells transiently transfected with the MMTV-LUC reporter
T3 sequence (P04150 1-777): T1 sequence (P04150 1-777)
In short: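 Luciferase from a transiently transfected MMTV-LUC reporter was measured after 24 h compound exposure (≤1% DMSO) in A549 or MDA-MB-453 cells. For antagonism, the decrease of 10 nM dexamethasone-induced signal was calculated. For agonism, Emax was referenced to 300 nM dexamethasone.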

[2] = U-937, U937 cells, activity repressed by 100 nM dexamethasone = 100%, Table 1, read-out: Transrepression U937 Cells GITAR Emax
[3] = U-937, text statement, 100 nM dexamethasone = 100%, read-out: maximal activity in the transrepression assay (GITAR)
[4] = activity repressed by 100 nM dexamethasone = 100%, Table 1

Compound	GITAR Greater than by GRAMMER % SEP (human GR; Table 1)	Emax (human GR; [2])	Emax (human GR; [3])	EC50 (human GR; Table 1)	Ki [1]	Emax (Glucocorticoid Receptor)	EC50 (Glucocorticoid Receptor)	Transrepression U937 Cells GITAR Emax (human GR; [4])	Transactivation A549 Cells GRAMMER Emax (Glucocorticoid Receptor)
COC[C@H]1CCCN1C(=O)[C@H]1CCC2=Cc3c(cnn3-c3ccc(F)cc3)C[C@@]21C [Compound 43, (4αR,5S)-1-(4-fluorophenyl)-5-{[(2R)-2-(methoxymethyl)pyrrolidin-1-yl]carbonyl}-4α-methyl-1,4,4α,5,6,7-hexahydrocyclopenta[f]indazole]	19.5%	21%	> 5%	385 nM	49.8 nM	1.5%	5000 nM	–	–
CCCN(CC(O)C(F)(F)F)C(=O)[C@H]1CCC2=Cc3c(cnn3-c3ccccc3)C[C@@]21C (stereo partly drawn) [Compound 78, (4αR,5S)-4α-methyl-1-phenyl-N-propyl-N-(3,3,3-trifluoro-2-hydroxypropyl)-1,4,4α,5,6,7-hexahydrocyclopenta[f]indazole-5-carboxamide]	21.0%	86%	> 5%	179 nM	2.7 nM	65%	165 nM	–	–
C[C@]12Cc3cnn(-c4ccc(F)cc4)c3C=C1CC[C@@H]2C(=O)N(CCC#N)C1CC1 [Compound 14, (4αR,5S)-N-(2-cyanoethyl)-N-cyclopropyl-1-(4-fluorophenyl)-4α-methyl-1,4,4α,5,6,7-hexahydrocyclopenta[f]indazole-5-carboxamide]	27.1%	38.3%	> 5%	1590 nM	10.8 nM	11.2%	1420 nM	–	–
CC(C)CCN(CCC(C)C)C(=O)[C@H]1CCC2=Cc3c(cnn3-c3ccc(F)cc3)C[C@@]21C [Compound 8, (4αR,5S)-1-(4-fluorophenyl)-4α-methyl-N,N-bis(3-methylbutyl)-1,4,4α,5,6,7-hexahydrocyclopenta[f]indazole-5-carboxamide]	12.4%	18%	> 5%	812 nM	1 nM	5.6%	728 nM	–	–
CCCN(C[C@H](C)O)C(=O)[C@H]1CCC2=Cc3c(cnn3-c3ccc(F)cc3)C[C@@]21C [Compound 65, (4αR,5S)-1-4-(4-fluorophenyl)-N-[(2S)-2-hydroxypropyl]-4α-methyl-N-propyl-1,4,4α,5,6,7-hexahydrocyclopenta[f]indazole-5-carboxamide]	8.4%	81.2%	> 5%	424 nM	4.7 nM	72.8%	431 nM	–	–
C[C@]12Cc3cnn(-c4ccc(F)cc4)c3C=C1CC[C@@H]2C(=O)Nc1ccccc1 [Compound 6, (4αR,5S)-1-(4-fluorophenyl)-4α-methyl-N-phenyl-1,4,4α,5,6,7-hexahydrocyclopenta[f]indazole-5-carboxamide]	11.5%	12.8%	> 5%	0.9 nM	19.4 nM	1.3%	133 nM	–	–
CCN(CC(O)C(F)(F)F)C(=O)[C@H]1CCC2=Cc3c(cnn3-c3ccc(F)cc3)C[C@@]21C (stereo partly drawn) [Compound 72, (4αR,5S)-N-ethyl-1-(4-fluorophenyl)-4α-methyl-N-(3,3,3-trifluoro-2-hydroxypropyl)-1,4,4α,5,6,7-hexahydrocyclopenta[f]indazole-5-carboxamide]	19.6%	–	–	43.9 nM	2.3 nM	–	37 nM	90.8%	71.2%
CCCN(CCC(F)(F)F)C(=O)[C@H]1CCC2=Cc3c(cnn3-c3ccc(F)cc3)C[C@@]21C [Compound 88, (4αR,5S)-1-(4-fluorophenyl)-4α-methyl-N-propyl-N-(3,3,3-trifluoropropyl)-1,4,4α,5,6,7-hexahydrocyclopenta[f]indazole-5-carboxamide]	5.9%	73.9%	> 5%	234 nM	2.2 nM	68%	371 nM	–	–
C[C@]12Cc3cnn(-c4ccc(F)cc4)c3C=C1CC[C@@H]2C(=O)N(CCc1ccccc1)Cc1ccccc1 [Compound 49, (4αR,5S)-N-benzyl-1-(4-fluorophenyl)-4α-methyl-N-(2-phenylethyl)-1,4,4,5,6,7-hexahydrocyclopenta[f]indazole-5-carboxamide]	10.1%	11.6%	> 5%	145 nM	1.9 nM	1.5%	260 nM	–	–
CN(CCOc1ccccc1)C(=O)[C@H]1CCC2=Cc3c(cnn3-c3ccc(F)cc3)C[C@@]21C [Compound 48, (4αR,5S)-1-(4-fluorophenyl)-N,4α-dimethyl-N-(2-phenoxyethyl)-1,4,4α,5,6,7-hexahydrocyclopenta[f] indazole-5-carboxamide]	20.0%	22.8%	> 5%	410 nM	7 nM	2.7%	1390 nM	–	–
CCCCN(CC)C(=O)[C@H]1CCC2=Cc3c(cnn3-c3ccc(F)cc3)C[C@@]21C [Compound 12, (4αR,5S)-N-butyl-N-ethyl-1-(4-fluorophenyl)-4α-methyl-1,4 ,4α,5,6,7-hexahydrocyclopenta[f]indazole-5-carboxamide]	26.6%	56.3%	> 5%	662 nM	1.4 nM	29.7%	376 nM	–	–
CCCN(CC1CCCO1)C(=O)[C@H]1CCC2=Cc3c(cnn3-c3ccc(F)cc3)C[C@@]21C (stereo partly drawn) [Compound 63, (4αR,5S)-1-(4-fluorophenyl)-4α-methyl-N-propyl-N-(tetrahydrofuran-2-ylmethyl)-1,4,4α,5,6,7-hexahydrocyclopenta[f]indazole-5-carboxamide]	17.6%	–	–	713 nM	6 nM	–	725 nM	45.9%	28.3%
